Measured values: patent publication US8158657B2, “Heterocycles substituted pyridine derivatives and antifungal agent containing thereof” (Eisai R&D Management Co., Ltd., priority 2005, dated 2012)
≈ marks a conversion by molar mass, not a printed value.

Assays:
[1] = system: A. fumigatus Tsukuba strain; experiment: Anti-Aspergillus activity, MIC measurement; assay type: cell-based; conditions: RPMI1640, 42-48 hours at 35° C., visual inspection, read-out: Anti-Aspergillus Activity (minimum inhibitory concentration, MIC)
Procedure, shortened: (§1)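 C. albicans CAF2-1 was grown 48 h at 30° C. in SDB and diluted in RPMI1640 to 1.2×10^3 cells/mL. Frozen A. fumigatus Tsukuba was diluted to 4.5×10^3 cells/mL. Compounds, two-fold serially diluted in DMSO from 2.5 mg/mL, were cultured aerobically with fungi for 42-48 h at 35° C.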

[2] = system: C. albicans CAF2-1 strain; experiment: Anti-Candida activity, MIC measurement; assay type: cell-based; conditions: CAF21STRAIN, C. albicans CAF2-1, RPMI1640, 42-48 hours at 35° C., visual inspection, read-out: Anti-Candida Activity (minimum inhibitory concentration, MIC)
Procedure, shortened: as §1

Structure (SMILES) | MIC [1] | MIC [2]
Nc1ccc(-c2cc(Cc3ccc(Oc4cccnc4)nc3)no2)c(N)n1 [Example 164, 3-(3-(6-(Pyridin-3-yloxy)-pyridin-3-ylmethyl)-isoxazol-5-yl)-pyridin-2,6-diamine] | 6.25 µg/mL (≈ 17.3 µM) | 6.25 µg/mL (≈ 17.3 µM)
COCc1ccc(-c2cc(Cc3ccc(Cc4ccc(C)o4)cc3)no2)c(N)n1 [Example 165] | 1.56 µg/mL (≈ 4.01 µM) | 0.78 µg/mL (≈ 2 µM)
COCc1ccc(-c2cc(Cc3ccc(Oc4ccccc4)nc3)no2)c(N)n1 [Example 167] | 0.78 µg/mL (≈ 2.01 µM) | 1.56 µg/mL (≈ 4.02 µM)
COCc1ccc(-c2cc(Cc3ccc(Cc4ccc(Cl)o4)cc3)no2)c(N)n1 [Example 168, 3-(3-(4-(5-Chloro-furan-2-ylmethyl)-benzyl)-isoxazol-5-yl)-6-methoxymethyl-pyridin-2-ylamine] | 0.78 µg/mL (≈ 1.9 µM) | 0.78 µg/mL (≈ 1.9 µM)
Nc1nc(CO)ccc1-c1cc(Cc2ccc(OCc3ccccc3)cc2)no1 [Example 169] | 0.39 µg/mL (≈ 1.01 µM) | 0.39 µg/mL (≈ 1.01 µM)
Cc1ccc(-c2cc(Cc3ccc(OCc4ccccc4)cc3)no2)c(N)n1 [Example 170, 3-(3-(4-benzyloxy-benzyl)-isoxazol-5-yl)-6-methyl-pyridin-2-ylamine] | 0.39 µg/mL (≈ 1.05 µM) | 0.78 µg/mL (≈ 2.1 µM)
Nc1ncc(Cl)cc1-c1cc(Cc2ccc(COc3ccccn3)cc2)no1 [Example 172] | 12.5 µg/mL (≈ 31.8 µM) | 6.25 µg/mL (≈ 15.9 µM)
Nc1ncc(F)cc1-c1cc(Cc2ccc(OCc3ccccc3)cc2)no1 [Example 173, 3-(3-(4-Benzyloxy-benzyl)-isoxazol-5-yl)-5-fluoro-pyridin-2-ylamine] | 0.78 µg/mL (≈ 2.08 µM) | 1.56 µg/mL (≈ 4.16 µM)
Nc1ncc(F)cc1-c1cc(Cc2ccc(OCc3ccc(F)cn3)cc2)no1 [Example 174, 5-Fluoro-3-(3-(4-(5-fluoro-pyridin-2-ylmethoxy)-benzyl)-isoxazol-5-yl)pyridin-2-ylamine] | 1.56 µg/mL (≈ 3.96 µM) | 6.25 µg/mL (≈ 15.8 µM)
Nc1ncc(F)cc1-c1cc(Cc2ccc(OCc3cc(Cl)ccn3)cc2)no1 [Example 175, 3-(3-(4-(4-Chloro-pyridin-2-ylmethoxy)-benzyl)-isoxazol-5-yl)-5-fluoro-pyridin-2-ylamine] | 1.56 µg/mL (≈ 3.8 µM) | 0.78 µg/mL (≈ 1.9 µM)
Nc1ccc(-c2cc(Cc3ccc(OCc4ccccn4)cc3)no2)cn1 [Example 177, 5-(3-(4-(Pyridin-2-ylmethoxy)-benzyl)-isoxazol-5-yl)-pyridin-2-ylamine] | 0.78 µg/mL (≈ 2.18 µM) | 0.39 µg/mL (≈ 1.09 µM)
Cc1ccc(Cc2ccc(Cc3cc(-c4ccc(N)nc4)on3)cc2)o1 [Example 178, 5-(3-(4-(5-Methyl-furan-2-ylmethyl)-benzyl)-isoxazol-5-yl)-pyridin-2-ylamine] | 0.2 µg/mL (≈ 0.579 µM) | 0.39 µg/mL (≈ 1.13 µM)
Nc1ccc(-c2cc(Cc3ccc(OCc4ccccc4)nc3)no2)cn1 [Example 179, 5-(3-(6-Benzyloxy-pyridin-3-ylmethyl)-isoxazol-5-yl)-pyridin-2-ylamine] | 0.39 µg/mL (≈ 1.09 µM) | 0.78 µg/mL (≈ 2.18 µM)
Nc1ccc(-c2cc(Cc3ccc(OCc4ccncc4)cc3)no2)cn1 [Example 180] | 1.56 µg/mL (≈ 4.35 µM) | 0.39 µg/mL (≈ 1.09 µM)
Nc1ccc(-c2cc(Cc3ccc(Oc4ccccc4)nc3)no2)cn1 [Example 181, 5-(3-(6-Phenoxy-pyridin-3-ylmethyl)-isoxazol-5-yl)-pyridin-2-ylamine] | 0.39 µg/mL (≈ 1.13 µM) | 1.56 µg/mL (≈ 4.53 µM)
Nc1ccc(-c2cc(Cc3ccc(Cc4ccc(Cl)o4)cc3)no2)cn1 [Example 182, 5-(3-(4-(5-Chloro-furan-2-ylmethyl)-benzyl)-isoxazol-5-yl)-pyridin-2-ylamine] | 0.2 µg/mL (≈ 0.547 µM) | > 25 µg/mL
Nc1ccc(-c2cc(Cc3ccc(OCc4cc(Cl)ccn4)cc3)no2)cn1 [Example 183, 5-(3-(4-(4-Chloro-pyridin-2-ylmethoxy)-benzyl)-isoxazol-5-yl)-pyridin-2-ylamine] | 0.78 µg/mL (≈ 1.99 µM) | 0.2 µg/mL (≈ 0.509 µM)
Nc1ccc(-c2cc(Cc3ccc(OCc4ccc(F)cn4)cc3)no2)cn1 [Example 184, 5-(3-(4-(5-Fluoro-pyridin-2-ylmethoxy)-benzyl)-isoxazol-5-yl)-pyridin-2-ylamine] | 0.39 µg/mL (≈ 1.04 µM) | > 25 µg/mL
Nc1ccc(-c2cc(Cc3ccc(Oc4ccccc4F)nc3)no2)cn1 [Example 185, 5-(3-(6-(2-Fluoro-phenoxy)-pyridin-3-ylmethyl)-isoxazol-5-yl)-pyridin-2-ylamine] | 0.78 µg/mL (≈ 2.15 µM) | 0.78 µg/mL (≈ 2.15 µM)
Nc1ccc(-c2cc(Cc3ccc(Oc4ccc(F)cc4)nc3)no2)cn1 [Example 186, 5-(3-(6-(4-Fluoro-phenoxy)-pyridin-3-ylmethyl)-isoxazol-5-yl)-pyridin-2-ylamine] | 0.78 µg/mL (≈ 2.15 µM) | 3.13 µg/mL (≈ 8.64 µM)
Cc1nc(N)ccc1-c1cc(Cc2ccc(COc3ccccn3)cc2)no1 [Example 187] | 0.78 µg/mL (≈ 2.09 µM) | 1.56 µg/mL (≈ 4.19 µM)
Cc1nc(N)ccc1-c1cc(Cc2ccc(OCc3ccccc3)cc2)no1 [Example 188, 5-(3-(4-Benzyloxy-benzyl)-isoxazol-5-yl)-6-methyl-pyridin-2-ylamine] | 0.78 µg/mL (≈ 2.1 µM) | 1.56 µg/mL (≈ 4.2 µM)

Structure (SMILES) | MIC [1] | MIC [2]
Nc1ncccc1-c1cc(Cc2ccc(OCc3ccccn3)cc2)on1 [Example 189, 3-(5-(4-(Pyridin-2-ylmethoxy)-benzyl)-isoxazol-3-yl)-pyridin-2-ylamine] | 0.2 µg/mL (≈ 0.558 µM) | 0.05 µg/mL (≈ 0.14 µM)
Cc1ccc(-c2cc(Cc3ccc(COc4ccccn4)cc3)no2)cn1 [Example 190, 2-Methyl-5-(3-(4-(pyridin-2-yloxymethyl)-benzyl)-isoxazol-5-yl)-pyridine] | 0.78 µg/mL (≈ 2.18 µM) | 0.78 µg/mL (≈ 2.18 µM)
Nc1ncccc1-c1cnn(Cc2ccc(OCc3ccccc3)nc2)c1 [Example 191, 3-(1-(6-Benzyloxy-pyridin-3-ylmethyl)-1H-pyrazol-4-yl)-pyridin-2-ylamine] | 0.39 µg/mL (≈ 1.09 µM) | 0.2 µg/mL (≈ 0.56 µM)
Nc1ncccc1-c1cnn(Cc2ccc(Oc3ccccc3)nc2)c1 [Example 193, 3-(1-(6-Phenoxy-pyridin-3-ylmethyl)-1H-pyrazol-4-yl)-pyridin-2-ylamine] | 0.78 µg/mL (≈ 2.27 µM) | 0.78 µg/mL (≈ 2.27 µM)
C#CCOCc1ccc(Cn2cc(-c3cccnc3N)cn2)cc1 [Example 194, 3-(1-(4-Prop-2-ynyloxymethyl-benzyl)-1H-pyrazol-4-yl)-pyridin-2-ylamine] | 3.13 µg/mL (≈ 9.83 µM) | 1.56 µg/mL (≈ 4.9 µM)
Nc1ncccc1-c1cnn(Cc2ccc(COCC3CC3)cc2)c1 [Example 195, 3-(1-(4-Cyclopropylmethoxymethyl-benzyl)-1H-pyrazol-4-yl)-pyridin-2-ylamine] | 0.78 µg/mL (≈ 2.33 µM) | 0.39 µg/mL (≈ 1.17 µM)
CCOCc1ccc(Cn2cc(-c3cccnc3N)cn2)cc1 [Example 196, 3-(1-(4-Ethoxymethyl-benzyl)-1H-pyrazol-4-yl)-pyridin-2-ylamine] | 6.25 µg/mL (≈ 20.3 µM) | 6.25 µg/mL (≈ 20.3 µM)
Nc1ncccc1-c1cnn(Cc2ccc(COC3CCC3)cc2)c1 [Example 197, 3-(1-(4-Cyclobutoxymethyl-benzyl)-1H-pyrazol-4-yl)-pyridin-2-ylamine] | 1.56 µg/mL (≈ 4.66 µM) | 3.13 µg/mL (≈ 9.36 µM)
Nc1ccc(-c2cnn(Cc3ccc(OCc4ccccc4)nc3)c2)c(N)n1 [Example 198, 3-(1-(6-Benzyloxy-pyridin-3-ylmethyl)-1H-pyrazol-4-yl)-pyridin-2,6-diamine] | 1.56 µg/mL (≈ 4.19 µM) | 0.78 µg/mL (≈ 2.09 µM)
Nc1ccc(-c2cnn(Cc3ccc(OCc4ccccn4)cc3)c2)c(N)n1 [Example 199] | 6.25 µg/mL (≈ 16.8 µM) | 3.13 µg/mL (≈ 8.4 µM)
Nc1ccc(-c2cnn(Cc3ccc(Oc4ccccc4)nc3)c2)c(N)n1 [Example 200, 3-(1-(6-Phenoxy-pyridin-3-ylmethyl)-1H-pyrazol-4-yl)-pyridin-2,6-diamine] | 3.13 µg/mL (≈ 8.73 µM) | 3.13 µg/mL (≈ 8.73 µM)
c1ccc(COc2ccc(Cc3cc(-c4cccnc4)on3)cc2)cc1 [Example 201, 3-(3-(4-Benzyloxy-benzyl)-isoxazol-5-yl)-pyridine] | 0.39 µg/mL (≈ 1.14 µM) | 0.78 µg/mL (≈ 2.28 µM)
c1ccc(COc2ccc(Cc3cc(-c4cccnc4)on3)cc2)nc1 [Example 203, 3-(3-(4-(Pyridin-2-ylmethoxy)-benzyl)-isoxazol-5-yl)-pyridine] | 1.56 µg/mL (≈ 4.54 µM) | 0.2 µg/mL (≈ 0.582 µM)
Nc1ncccc1-c1cc(Cc2ccc(COc3ccccn3)cc2F)no1 [Example 204, 3-(3-(2-Fluoro-4-(pyridin-2-yloxymethyl)-benzyl)-isoxazol-5-yl)-pyridin-2-ylamine] | 0.39 µg/mL (≈ 1.04 µM) | 0.2 µg/mL (≈ 0.531 µM)
Nc1ncccc1-c1cc(Cc2ccc(SCc3ccccc3)cc2)no1 [Example 205, 3-(3-(4-Benzylsulfanyl-benzyl)-isoxazol-5-yl)-pyridin-2-ylamine] | 0.78 µg/mL (≈ 2.09 µM) | 0.39 µg/mL (≈ 1.04 µM)
Nc1ncccc1-c1cc(Cc2ccc(CSc3ccccc3)cc2)no1 [Example 206] | 0.39 µg/mL (≈ 1.04 µM) | 0.1 µg/mL (≈ 0.268 µM)
Nc1ncccc1-c1cc(Cc2ccc(Br)cc2)no1 [Example 207, 3-(3-(4-bromo-benzyl)-isoxazol-5-yl)-pyridin-2-ylamine] | 6.25 µg/mL (≈ 18.9 µM) | 25 µg/mL (≈ 75.7 µM)
Nc1ncccc1-c1cc(Cc2ccc(Cc3ccc(F)cc3)o2)no1 [Example 208, 3-(3-(5-(4-Fluoro-benzyl)-furan-2-ylmethyl)-isoxazol-5-yl)-pyridin-2-ylamine] | 0.78 µg/mL (≈ 2.23 µM) | 6.25 µg/mL (≈ 17.9 µM)
Nc1ncccc1-c1cc(Cc2ccc(Oc3ccccn3)cc2)no1 [Example 209, 3-(3-(4-(Pyridin-2-yloxy)-benzyl)-isoxazol-5-yl)-pyridin-2-ylamine] | 0.39 µg/mL (≈ 1.13 µM) | 0.2 µg/mL (≈ 0.581 µM)
Nc1ncccc1-c1cc(Cc2ccc(Cc3ccccc3)nc2)no1 [Example 210, 3-(3-(6-Benzyl-pyridin-3-ylmethyl)-isoxazol-5-yl)-pyridin-2-ylamine] | 0.2 µg/mL (≈ 0.584 µM) | 0.1 µg/mL (≈ 0.292 µM)
Nc1ccc(-c2cc(Cc3ccc(COc4ccccn4)cc3F)no2)c(N)n1 [Example 211, 3-(3-(2-Fluoro-4-(pyridin-2-yloxymethyl)-benzyl)-isoxazol-5-yl)-pyridin-2,6-diamine] | 0.39 µg/mL (≈ 0.996 µM) | 0.39 µg/mL (≈ 0.996 µM)
